{"source": "ChEMBL document CHEMBL5137130", "about": "“Highly N-Methylated Peptides from the Antarctic Sponge Inflatella coelosphaeroides Are Active against Plasmodium falciparum” (J Nat Prod, 2022)", "key": {"[1]": {"assay": "Cytotoxicity against mouse J774 cells assessed as reduction in cell viability incubated for 68 hrs by CellTiter96 Aqueous One Solution Cell Proliferation Assay", "format": "toxicity, cell-based"}, "[2]": {"test_system": "Plasmodium falciparum", "assay": "Antimalarial activity against blood stage chloroquine-resistant Plasmodium falciparum Dd2 assessed as reduction in parasite growth incubated for 72 hrs by SYBR Green dye based fluorescence assay", "format": "functional, organism-based", "settings": "Dd2, 72 h"}, "[3]": {"test_system": "Plasmodium falciparum", "assay": "Antimalarial activity against blood stage chloroquine-sensitive Plasmodium falciparum NF54 assessed as reduction in parasite growth incubated for 72 hrs by SYBR Green dye based fluorescence assay", "format": "functional, organism-based", "settings": "NF54, 72 h"}, "[4]": {"test_system": "Plasmodium falciparum", "assay": "Antimalarial activity against blood stage chloroquine-sensitive Plasmodium falciparum 3D7 assessed as reduction in parasite growth incubated for 72 hrs by SYBR Green dye based fluorescence assay", "format": "functional, organism-based", "settings": "3D7, 72 h"}}, "note": "Where a SMILES comes first, the peptide text is derived from it. [ ]: non-standard residue; d: D form. The star is where a group is joined. Phe(Nα-CONH2) = NC(=O)N[C@@H](Cc1ccccc1)C(=O)*; NMeI = CC[C@H](C)[C@H](NC)C(=O)O; X1 = CN(/C=C\\c1c[nH]c2ccccc12)*; NMeL = CN[C@@H](CC(C)C)C(=O)O; NMeV = CN[C@H](C(=O)O)C(C)C; NMeA = CN[C@@H](C)C(=O)O; For = O=C*"}
{"smiles": "CC[C@H](C)[C@@H](C(=O)N(C)[C@H](C(=O)NC)[C@@H](C)CC)N(C)C(=O)[C@H](C(C)C)N(C)C(=O)[C@H](C)N(C)C(=O)[C@H](C(C)C)N(C)C(=O)[C@H](C(C)C)N(C)C(=O)[C@@H](NC=O)C(C)C", "note": "(For-V[NMeV][NMeV][NMeA][NMeV][NMeI][NMeI]-NHMe)", "values": [{"measurement": "IC50 at 68 h", "setting": "[1]", "result": "> 20", "unit": "µM"}, {"measurement": "IC50", "setting": "[2]", "result": 4.37, "unit": "µM"}, {"measurement": "IC50", "setting": "[3]", "result": "> 10", "unit": "µM"}, {"measurement": "IC50", "setting": "[4]", "result": "> 10", "unit": "µM"}]}
{"smiles": "CC[C@H](C)[C@@H](C(=O)N(C)/C=C\\c1c[nH]c2ccccc12)N(C)C(=O)[C@H](C(C)C)N(C)C(=O)[C@H](C(C)C)N(C)C(=O)[C@H](CC(C)C)N(C)C(=O)[C@@H]1CCCN1C(=O)[C@H](Cc1ccccc1)NC(=O)[C@H](Cc1ccccc1)NC(C)=O", "note": "(Ac-FFP[NMeL][NMeV][NMeV][NMeI]-X1)", "values": [{"measurement": "IC50 at 68 h", "setting": "[1]", "result": "> 20", "unit": "µM"}, {"measurement": "IC50", "setting": "[2]", "result": 3.3, "unit": "µM"}, {"measurement": "IC50", "setting": "[3]", "result": 3.93, "unit": "µM"}, {"measurement": "IC50", "setting": "[4]", "result": 8.65, "unit": "µM"}]}
{"smiles": "CC[C@H](C)[C@@H](C(=O)N(C)[C@@H](C)C(=O)N(C)[C@H](C(N)=O)C(C)C)N(C)C(=O)[C@H]([C@@H](C)CC)N(C)C(=O)[C@H](C)N(C)C(=O)[C@H](C(C)C)N(C)C(=O)[C@H](C)N(C)C(=O)[C@@H](NC(C)=O)C(C)C", "note": "(Ac-V[NMeA][NMeV][NMeA][NMeI][NMeI][NMeA][NMeV]-NH2)", "values": [{"measurement": "IC50 at 68 h", "setting": "[1]", "result": "> 20", "unit": "µM"}, {"measurement": "IC50", "setting": "[2]", "result": "> 10", "unit": "µM"}, {"measurement": "IC50", "setting": "[3]", "result": "> 10", "unit": "µM"}, {"measurement": "IC50", "setting": "[4]", "result": "> 10", "unit": "µM"}]}
{"smiles": "CC[C@H](C)[C@@H](C(N)=O)N(C)C(=O)[C@H](C(C)C)N(C)C(=O)[C@H](CC(C)C)N(C)C(=O)[C@H](Cc1ccccc1)N(C)C(=O)[C@H](Cc1ccccc1)NC=O", "values": [{"measurement": "IC50 at 68 h", "setting": "[1]", "result": "> 20", "unit": "µM"}, {"measurement": "IC50", "setting": "[2]", "result": 1.72, "unit": "µM"}, {"measurement": "IC50", "setting": "[3]", "result": 2.61, "unit": "µM"}, {"measurement": "IC50", "setting": "[4]", "result": 2.1, "unit": "µM"}]}
{"smiles": "CNC(=O)[C@H](C(C)C)N(C)C(=O)[C@H](C(C)C)N(C)C(=O)[C@H](C(C)C)N(C)C(=O)[C@H](C)N(C)C(=O)[C@H](C)N(C)C(=O)[C@H](CC(C)C)N(C)C(=O)[C@H](C(C)C)N(C)C(=O)[C@H](Cc1ccccc1)NC=O", "note": "(For-F[NMeV][NMeL][NMeA][NMeA][NMeV][NMeV][NMeV]-NHMe)", "values": [{"measurement": "IC50 at 68 h", "setting": "[1]", "result": "> 20", "unit": "µM"}, {"measurement": "IC50", "setting": "[2]", "result": 1.07, "unit": "µM"}, {"measurement": "IC50", "setting": "[3]", "result": 3.73, "unit": "µM"}, {"measurement": "IC50", "setting": "[4]", "result": 2.52, "unit": "µM"}]}
{"smiles": "CNC(=O)[C@H](C(C)C)N(C)C(=O)[C@H](C(C)C)N(C)C(=O)[C@H](C(C)C)N(C)C(=O)[C@H](C)N(C)C(=O)[C@H](C)N(C)C(=O)[C@H](CC(C)C)N(C)C(=O)[C@H](C(C)C)N(C)C(=O)[C@H](Cc1ccccc1)NC(N)=O", "note": "({Phe(Nα-CONH2)}-[NMeV][NMeL][NMeA][NMeA][NMeV][NMeV][NMeV]-NHMe)", "values": [{"measurement": "IC50 at 68 h", "setting": "[1]", "result": "> 20", "unit": "µM"}, {"measurement": "IC50", "setting": "[2]", "result": 2.02, "unit": "µM"}, {"measurement": "IC50", "setting": "[3]", "result": 3.05, "unit": "µM"}, {"measurement": "IC50", "setting": "[4]", "result": "> 10", "unit": "µM"}]}
{"smiles": "CC[C@H](C)[C@@H](C(=O)NC)N(C)C(=O)[C@H](C)N(C)C(=O)[C@H](C(C)C)N(C)C(=O)[C@H](C(C)C)N(C)C(=O)[C@H](C)N(C)C(=O)[C@H](C(C)C)N(C)C(=O)[C@H](C(C)C)N(C)C(=O)[C@H](C)N(C)C(=O)[C@H](C)NC(C)=O", "note": "(Ac-A[NMeA][NMeV][NMeV][NMeA][NMeV][NMeV][NMeA][NMeI]-NHMe)", "values": [{"measurement": "IC50 at 68 h", "setting": "[1]", "result": "> 20", "unit": "µM"}, {"measurement": "IC50", "setting": "[2]", "result": "> 10", "unit": "µM"}, {"measurement": "IC50", "setting": "[3]", "result": "> 10", "unit": "µM"}, {"measurement": "IC50", "setting": "[4]", "result": "> 10", "unit": "µM"}]}
